Measured values reported in patent publication US20230024108A1, “ADENOSINE A2A RECEPTOR ANTAGONISTS” (Teon Therapeutics, Inc., priority 2019, published 2023).

Assays:
A1AdoR = biological target: T1, A1AdoR (Homo sapiens, UniProt P30542); assay: Adenosine receptor binding assay, A1 ([3H]-DPCPX); details: ratio A1 vs A2A binding
T1 construct: purchased PerkinElmer ES-010-M400UA
T1 sequence (P30542 1-326): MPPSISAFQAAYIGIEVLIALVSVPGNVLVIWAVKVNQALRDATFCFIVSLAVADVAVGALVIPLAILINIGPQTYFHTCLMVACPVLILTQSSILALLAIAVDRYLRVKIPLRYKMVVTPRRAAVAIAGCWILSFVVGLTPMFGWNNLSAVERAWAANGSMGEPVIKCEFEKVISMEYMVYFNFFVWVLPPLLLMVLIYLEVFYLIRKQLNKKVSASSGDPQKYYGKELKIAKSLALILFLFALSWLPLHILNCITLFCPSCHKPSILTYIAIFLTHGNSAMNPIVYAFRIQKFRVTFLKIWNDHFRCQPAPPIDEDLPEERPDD
How it was run: (§1)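 Filtration binding on membranes: A2A in HEK-293 with 6 nM [3H]-CGS-21680, Tris pH 7.4, 2 h; A2B in HEK-293 with 8 nM [3H]-DPCPX, HEPES pH 7.0, 1 h; A1 in CHO-K1 with 1 nM [3H]-DPCPX, HEPES pH 7.4, 1 h; room temperature. 8-point dilutions; IC50 converted to Ki (Cheng–Prusoff).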

human A2A AdoR = biological target: T2, human A2A AdoR (Homo sapiens, UniProt P29274); assay: Adenosine receptor binding assay, A2A ([3H]-CGS-21680); details: membranes of HEK-293 cells expressing human A2A AdoR; read-out: hA2A IC50
T2 construct: purchased PerkinElmer RBHA2AM400UA
How it was run: as §1

phospho-CREB (pCREB) = assay: Human whole blood phospho-CREB (pCREB) assay / modulation of pCREB in human immune cells; type: cell-based; details: agonist (NECA or CGS-21680)-stimulated human blood cells
Experimental: Fresh human blood samples are derived from healthy volunteers and processed in heparin tubes. 67.5 ul of whole blood is aliquoted to each well in a 96-well plate and incubated at 37° C. for 30 min. Testing compounds are diluted with DMSO to make 8-point 3-fold serial dilution and 3.5 ul (20×) is added to each well. Cells are incubated with the compounds at 37° C. for 30 min. NECA (5 uM) is then added to each well and cells are incubated for 30 min at 37° C. Following the stimulation, cells are transferred to a 96-well deep well plates and fixed with 1 ml/well of lyse/fix buffer (1×) (BD Biosciences #558049) with vigorous shake at 37° C. for 10 min. Cells are centrifuged at 600 g for 6 min and washed twice with PBS, followed by addition of 800 ul/well Perm buffer III (BD Biosciences #558050). Cells are then pelleted at 600 g for 6 min, washed with FACS buffer (PBS+0.2% BSA+1 mM EDTA) and stained for 40 min at room temperature in the dark with an antibody cocktail containing PE mouse anti-human CD3 (BD Biosciences #555333, 1 ul/well), FITC mouse anti-human CD4 (BD Biosciences #5555346, 1 ul/well), PerCP-Cy™5.5 mouse anti-human CD8 (BD Biosciences #565310, 1 ul/well) and phospho-CREB (Ser133) (87G3) Rabbit mAb (Alexa Fluor® 647 Conjugate, CST #14001, 0.5 ul/well). Cells are then washed twice with FACS buffer and acquired on a flow cytometer (Sony Cell Sorter SH800). Data were analyzed using FlowJo version 9. The level of CREB phosphorylation from unstimulated cells (Low control: LC) and NECA-stimulated cells (High control: HC) are determined as mean fluorescent intensity (MFI) in stimulated condition/mean fluorescent intensity in unstimulated condition. % Inhibition is calculated as (MFI of HC-MFI of assay well)/(MFI of HC-MFI of LC)×100%. Data are analyzed and IC50s calculated using GraphPad Prism 5 and the model “log(inhibitor) vs. response—Variable slope”.
The A2A receptor is known to mediate CREB phosphorylation.
Venous blood from healthy volunteers, all of whom signed an informed consent approved by the Ethics Committee (FOR—UIC-BV-050-01-01 ICF HBS HD Version 5.0), was obtained via ImmuneHealth (Centre Hospitalier Universitaire Tivoli, La Louviere,
15 Belgium). Peripheral blood cells were treated with A2AR agonists CGS-21680 or NECA (Sigma-Aldrich, Diegem, Belgium), and a serial dilution of compounds disclosed herein (all used stock solutions at 10 mM in DMSO). All dilutions were prepared in RPMI1640 medium (with UltraGlutamine; Lonza, Venders, Belgium), and cells were incubated with compounds in a 37° C. humidified tissue culture incubator with 5% CO2.
After stimulation, cells were fixed and permeabilized, followed by intracellular staining using mouse anti-human pCREB antibodies (Clone J151-21; BD Biosciences) at room temperature. Data were acquired using an LSRFortessa flow cytometer (BD Biosciences) and analyzed using FlowJo software (FlowJo, LLC, Ashland, Oregon).

human A2B AdoR = biological target: T3, human A2B AdoR (Homo sapiens, UniProt P29275); assay: Adenosine receptor binding assay, A2B ([3H]-DPCPX); details: ratio A2B vs A2A binding
T3 construct: purchased PerkinElmer ES-013-M400UA
T3 sequence (P29275 1-332): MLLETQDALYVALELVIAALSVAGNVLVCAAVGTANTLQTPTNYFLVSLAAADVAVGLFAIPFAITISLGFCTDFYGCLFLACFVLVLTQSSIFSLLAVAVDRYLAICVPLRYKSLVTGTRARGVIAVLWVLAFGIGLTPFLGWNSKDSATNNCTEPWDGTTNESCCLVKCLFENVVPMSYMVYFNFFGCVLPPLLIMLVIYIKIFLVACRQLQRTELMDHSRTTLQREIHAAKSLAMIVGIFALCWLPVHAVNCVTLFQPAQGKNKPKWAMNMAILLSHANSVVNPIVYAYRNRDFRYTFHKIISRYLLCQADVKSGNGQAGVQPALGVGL
Experimental: Membranes prepared from CHO-K1 cells stably expressing Human AiAdoR (ES-010-M400UA), HEK-293 cells stably expressing human A2A AdoR (RBHA2AM400UA), HEK-293 cells stably expressing human A2B AdoR (ES-013-M400UA) and CHO-K1 cells stably expressing Human A3 AdoR (ES-012-M400UA) were purchased from PerkinElmer (Waltham, Mass., USA) and stored at −80° C. until use. Binding assays are performed using the radioligands. The final concentrations are as follows: [3H]-DPCPX (PerkinElmer, NET974001MC) at 1 nM for A1AdoR; [^3H]-CGS-21680 (PerkinElmer, NET1021250UC) at 6 nM for A2AAdoR, [3H]-DPCPX (PerkinElmer, NET974001MC) at 8 nM for A2BAdoR; [^3H]-HEMADO (ARC, Cat: ART1456) at 1 nM for A3AdoR. Testing compounds are diluted with DMSO to make 8-point 4-fold serial dilution. Nonspecific binding (Low control: LC) and total binding (High control: HC) are determined in the presence or absence of saturated cold ligand. Specific binding is calculated by subtracting nonspecific binding from total binding. All assays are performed in a final volume of 200 μl containing 1 μl of the test compound in DMSO, 100 μl of membrane preparation, and 99 μl of the radioligand in assay buffer (A1AdoR: 25 mM HEPES pH 7.4, 5 mM MgCl2, 1 mM CaCl2), 100 mM NaCl; A2AAdoR: 50 mM Tris HCl pH 7.4, 10 mM MgCl2, 1 mM EDTA; A2BAdoR: 50 mM HEPES pH 7.0, 5 mM MgCl2, 1 mM EDTA; A3AdoR: 25 HEPES pH 7.4, 10 mM MgCl2, 1 mM CaCl2), 0.5% BSA). The incubation is performed at room temperature with shaking at 300 rpm for 1 hour for A1AdoR, A2BAdoR and A3AdoR and 2 hours for A2AAdoR. After the incubation, the assay mixture is filtered through 96 GF/C filter plates (Perkin Elmer #6005174) using Perkin Elmer Filtermate Harvester, and then washed four times with ice-cold washing buffer (A1AdoR: 25 mM HEPES pH 7.4, 5 mM MgCl2, 1 mM CaCl2), 100 mM NaCl; A2AAdoR: 50 mM Tris HCl pH 7.4, 154 mM NaCl; A2BAdoR: 50 mM HEPES pH 6.5, 5 mM MgCl2, 1 mM EDTA, 0.2% BSA; A3AdoR: 50 mM Tris HCl pH 7.4). The filters are dried for 1 hour at 50° C. and [^3H] trapped on filter counted for radioactivity in Perkin Elmer Microscint 20 cocktail (#6013329) using Perkin Elmer MicroBeta2 Reader. The results are expressed as a percent inhibition of the control radioligand specific binding calculated using the following equation: % Inhibition=(1−(Assay well-Average_LC)/(Average_HC−Average_LC))×100%. Data are analyzed and IC50 is calculated using GraphPad Prism 5 and the model “log(inhibitor) vs. response—Variable slope”. The binding affinity of the compounds is determined by using the Cheng and Prusoff equation Ki=IC50/(1+[radioligand]/Kd).

T2 sequence (P29274 whole entry): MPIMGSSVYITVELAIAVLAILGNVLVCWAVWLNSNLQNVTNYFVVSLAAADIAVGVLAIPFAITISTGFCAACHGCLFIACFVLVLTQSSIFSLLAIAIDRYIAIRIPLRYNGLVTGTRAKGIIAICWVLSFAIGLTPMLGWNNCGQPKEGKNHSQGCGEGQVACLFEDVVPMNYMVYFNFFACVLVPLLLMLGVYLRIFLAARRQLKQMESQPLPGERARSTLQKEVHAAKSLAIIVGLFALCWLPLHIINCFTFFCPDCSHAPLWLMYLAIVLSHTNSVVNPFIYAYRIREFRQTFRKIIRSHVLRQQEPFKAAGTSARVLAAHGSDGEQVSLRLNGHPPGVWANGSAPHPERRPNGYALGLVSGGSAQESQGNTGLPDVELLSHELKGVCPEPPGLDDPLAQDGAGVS

IC50 (human A2A AdoR) [µM]	EC50 (phospho-CREB (pCREB)) [µM]	A2B/A2A Selectivity (human A2B AdoR)	Compound	A1/A2A Selectivity (A1AdoR)
≤ 0.02	0.02 to 0.1		CS(=O)(=O)NC(=O)COc1ccc(N2CCN(CCn3c(C#N)c(Cl)c4c3nc(N)n3nc(-c5ccccn5)nc43)CC2)cc1	b (greater than 100 but less than or equal to 1000)
≤ 0.02	≤ 0.02		Cc1c(C(N)=O)n(CCN2CCN(c3cc(-c4ncco4)ccc3F)CC2)c2nc(N)n3nc(-c4ccccn4)nc3c12	a (greater than 1000)
≤ 0.02	> 0.1	a (greater than 1000)	N#Cc1cc2c(nc(N)n3nc(-c4ccccn4)nc23)n1CCN1CCN(c2cc(-c3ncco3)ccc2F)CC1	a (greater than 1000)
≤ 0.02	≤ 0.02		CNC(=O)c1c(C)c2c(nc(N)n3nc(-c4ccccn4)nc23)n1CCN1CCN(c2cc(-c3ncco3)ccc2F)CC1	a (greater than 1000)
≤ 0.02	> 0.1		COC(=O)c1c(C)c2c(nc(N)n3nc(-c4ccccn4)nc23)n1CCN1CCN(c2cc(-c3ncco3)ccc2F)CC1	a (greater than 1000)

Second part, the compound before the results:

Compound	IC50 (human A2A AdoR) [µM]	EC50 (phospho-CREB (pCREB)) [µM]	A2B/A2A Selectivity (human A2B AdoR)	A1/A2A Selectivity (A1AdoR)
CC#Cc1nc2c3ncn(CCN4CCN(c5cc(-c6ncco6)ccc5F)CC4)c3nc(N)n2n1	≤ 0.02	0.02 to 0.1		a (greater than 1000)
CC#Cc1nc2c3cc(C#N)n(CCN4CCN(c5cc(-c6ncco6)ccc5F)CC4)c3nc(N)n2n1	≤ 0.02	> 0.1	a (greater than 1000)	a (greater than 1000)
Cc1c(C(=O)N2CCC2)n(CCN2CCN(c3cc(-c4ncco4)ccc3F)CC2)c2nc(N)n3nc(-c4ccccn4)nc3c12	≤ 0.02	0.02 to 0.1		b (greater than 100 but less than or equal to 1000)
Cc1noc2cc(F)c(N3CCN(CCn4c(C#N)cc5c4nc(N)n4nc(-c6ccccn6)nc54)CC3)cc12	≤ 0.02	> 0.1	a (greater than 1000)	c (greater than 0 but less than or equal to 100)
N#Cc1c(Cl)c2c(nc(N)n3nc(-c4ccccn4)nc23)n1CCN1CCN(c2cc(-c3ncco3)ccc2F)CC1	≤ 0.02	0.02 to 0.1		
Cc1cn(CCN2CCN(c3cc(-c4ncco4)ccc3F)CC2)c2nc(N)n3nc(-c4ccccn4)nc3c12	≤ 0.02	0.02 to 0.1		c (greater than 0 but less than or equal to 100)
Nc1nc2c(c(Cl)nn2CCN2CCN(c3cc(-c4ncco4)ccc3F)CC2)c2nc(-c3ccccn3)nn12	≤ 0.02	0.02 to 0.1	a (greater than 1000)	c (greater than 0 but less than or equal to 100)
CS(=O)(=O)NC(=O)COc1ccc(N2CCN(CCn3c(C#N)cc4c3nc(N)n3nc(-c5ccccn5)nc43)CC2)cc1 [2-(4-(4-(2-(5-amino-8-cyano-2-(pyridin-2-yl)-7H-pyrrolo[3,2-e][1,2,4]triazolo[1,5-c]pyrimidin-7-yl)ethyl)piperazin-1-yl)phenoxy)-N-(methylsulfonyl)acetamide]	≤ 0.02	> 0.1		b (greater than 100 but less than or equal to 1000)
Cc1noc2cc(F)c(N3CCN(CCn4cnc5c4nc(N)n4nc(-c6ccccn6)nc54)CC3)cc12 [3-(2-(4-(6-fluoro-3-methylbenzo[d]isoxazol-5-yl)piperazin-1-yl)ethyl)-8-(pyridin-2-yl)-3H-[1,2,4]triazolo[5,1-i]purin-5-amine]	≤ 0.02	> 0.1		b (greater than 100 but less than or equal to 1000)
CNC(=O)c1cc2c(nc(N)n3nc(-c4ccccn4)nc23)n1CCN1CCN(c2cc(-c3ncco3)ccc2F)CC1 [5-amino-7-(2-(4-(2-fluoro-5-(oxazol-2-yl)phenyl)piperazin-1-yl)ethyl)-N-methyl-2-(pyridin-2-yl)-7H-pyrrolo[3,2-e][1,2,4]triazolo[1,5-c]pyrimidine-8-carboxamide]	≤ 0.02	> 0.1		c (greater than 0 but less than or equal to 100)
